Measurements published in US20260048036A1, “CRYSTALLINE FORMS OF A GLUCOSYLCERAMIDE SYNTHASE INHIBITOR AND USES THEREOF” (ACELINK THERAPEUTICS, INC., priority 2022, published 2026).
Values after ≈ are worked out from the molar mass of the structure shown. Values joined by “and” are separate entries in the source; they are usually repeats but may differ in a detail not shown here. Equal entries are not always repeated. Where two headings read alike, the source gives them in different places.

Columns and labels:
[1] = molecular target: T1, Glucosylceramide synthase (GCS) (Rattus norvegicus, UniProt Q9R0E0); assay: GCS enzymatic assay with L6 cell lysate; type: biochemical; details: 0.1 μM, N = 1, N = 2
T1 construct: The MDCK, K-562, and L6 cell lines all endogenously express GCS enzyme; host or cells: L6 rat skeletal muscle cell lysate
T1 sequence (Q9R0E0 1-394): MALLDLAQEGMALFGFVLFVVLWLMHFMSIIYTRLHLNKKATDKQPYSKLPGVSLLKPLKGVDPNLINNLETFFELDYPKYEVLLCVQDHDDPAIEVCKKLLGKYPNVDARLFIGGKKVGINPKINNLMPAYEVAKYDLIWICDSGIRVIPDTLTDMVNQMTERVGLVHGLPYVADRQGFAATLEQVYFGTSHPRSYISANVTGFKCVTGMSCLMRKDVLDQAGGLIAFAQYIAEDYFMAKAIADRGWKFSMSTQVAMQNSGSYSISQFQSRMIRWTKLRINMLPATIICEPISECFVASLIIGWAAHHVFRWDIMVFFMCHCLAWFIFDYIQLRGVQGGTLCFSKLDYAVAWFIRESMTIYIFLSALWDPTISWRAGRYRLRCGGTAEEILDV
Text: In this study, the inventors developed a reliable method to monitor GCS catalytic activity using the fluorescent substrate, C6-NBD-ceramide. The reaction product, C6-NBD-glucosylceramide, could then be detected and quantified by LC-MS/MS. The inventors used this method to test and validate the effect of various GCS inhibitors on GCS enzyme activity from different species.
The MDCK, K-562, and L6 cell lines all endogenously express GCS enzyme and were used to test the effect of various GCS inhibitors on enzyme originating from different species. The GCS enzyme activity was detected by using the fluorescent substrate, C6-NBD-ceramide, and monitoring the formation of the fluorescent reaction product, C6-NBD-glucosylceramide. First, the inventors used cell lysate derived from a canine kidney cell line (MDCK, ATCC Cat #CCL-34™) as the source of GCS and tested the inhibitory activity of several control and test compounds. The inventors then used the human leukemia K-562 cell line (ATCC Cat #[…]) to test the effect of these GCS inhibitors on intact living cells. Finally, a cell lysate derived from a rat skeletal muscle cell line, L6 (ATCC Cat #[…]), was used to test the effect of these GCS inhibitors on rodent GCS enzyme.
GCS activity was evaluated using a GCS enzyme assay derived from MDCK or L6 cell lysates.
MDCK or L6 cell lysates were prepared using M-PER in the presence of a protease inhibitor cocktail. Each 100 mm dish (100% confluent) was lysed with 250 μl of M-PER containing protease inhibitors. Protein concentration was determined using Pierce BCA protein assay kit.
Sixty micrograms of MDCK lysate was incubated with various concentrations of compounds (0.00001 μM-1 μM) in 100 mM Tris buffer (pH 7.5) containing 10 mM MgCl2, 1 mM dithiothreitol, 1 mM EGTA, 2 mM NAD, 100 μM UDP-glucose, 10 μM C6-NBD-ceramide with 35 μM dioleoylphosphatidylcholine/5 μM sulfatide in a final reaction volume of 100 μl at 37° C. for 1 hour. The final concentration of DMSO was 0.1% in both compound treated and DMSO only treated samples. Each individual reaction was terminated with 11 volumes of methanol:acetonitrile (6:5; containing 200 ng/ml Tolbutamide as internal control). After sufficient mixing, reactions were centrifuged at 2000 rpm for 10 mins, supernatant was injected into the LC-MS/MS for analysis.
For the assay with L6 cell lysate, different amounts of L6 cell lysate were used.
The quantitative analysis of C6-NBD-glucosylceramide was performed on a Shimadzu ultra-fast liquid chromatography coupled with API 4000 mass spectrometer. Analyst 1.5 software packages were used to control the LC-MS/MS system, as well as for data acquisition and processing.
The C6-NBD-glucosylceramide reading was normalized first by dividing the peak area of C6-NBD-glucosylceramide with the peak area of the internal standard, and then the amount was calculated according to the standard curve generated in the same assay run. For the cell based assay results, the amount of C6-NBD-glucosylceramide was also normalized by the protein concentration of the cell samples.
To confirm the inhibitory activity of test compounds on GCS from different species, cells from rat were used. First, the presence of GCS activity was verified using various amounts of L6 cell lysate (FIG. 34, Table 26).

[2] = Approximate solubility at 25° C. by visual observation; type: physicochemical; details: thermodynamic from solid
Experimental: Free form Crystalline Form A of Compound 1 was used as the starting material for salt screening and selection study. […] Max. volume of each solvent added was 1 mL.

[3] = Hygroscopicity by DVS at 25° C.; type: physicochemical
[4] = Competitive equilibration experiment (Form A + D + E slurry); type: physicochemical; details: ethanol, acetone, acetonitrile at 5° C., 25° C. and 50° C., 3 days, XRPD
Experimental: Competitive slurry was conducted to determine thermodynamic relationships of Crystalline Form A, Crystalline Form D and Crystalline Form E of Compound 1. […] The mixtures were stirred at 5° C., 25° C. or 50° C. for 3 days. Obtained solid part (wet cake) was investigated by XRPD.

## O=C(N[C@H](CN1CCCC1)[C@H](O)c1ccc(OC2CC2)c(Cl)c1)/C(=N/O)c1ccc2cc(Cl)ccc2c1 [Crystalline Form A of Compound 1]
[1]; 30 μg L6 lysate/reaction
  C6-NBD-Ceramide (Normalized to internal control): 6.69 and 6.31
  C6-NBD-Glucosylceramide Concentration: 9.73 nM and 10.5 nM
  Inhibition: 98.57% and 98.45%
  inhibition at 0.1 µM: > 98%
[1]; 60 μg L6 lysate/reaction
  C6-NBD-Ceramide (Normalized to internal control): 5.87 and 6.17
  C6-NBD-Glucosylceramide Concentration: 22.5 nM and 26.3 nM
  Inhibition: 97.64%
  inhibition at 0.1 µM: 98%
[1]; 120 μg L6 lysate/reaction
  C6-NBD-Ceramide (Normalized to internal control): 6.09 and 6.11
  C6-NBD-Glucosylceramide Concentration: 45.8 nM and 44.7 nM
  Inhibition: 96.74%
  inhibition at 0.1 µM: 96.7%
[1]; 180 μg L6 lysate/reaction
  C6-NBD-Ceramide (Normalized to internal control): 5.15 and 5.12
  C6-NBD-Glucosylceramide Concentration: 54.7 nM and 59.0 nM
  Inhibition: 95.55%
  inhibition at 0.1 µM: 95.9%
[1]; 240 μg L6 lysate/reaction
  C6-NBD-Ceramide (Normalized to internal control): 5.72 and 5.61
  C6-NBD-Glucosylceramide Concentration: 76.9 nM and 78.2 nM
  Inhibition: 93.51%
  inhibition at 0.1 µM: 93.6%
[2]; organic solvent or mixture, Acetone
  solubility: 16700 to 25000 µg/mL (≈ 30.8 to 46.1 mM)
[2]; organic solvent or mixture, Acetonitrile
  solubility: < 5000 µg/mL
[2]; organic solvent or mixture, Ethanol
  solubility: 5000 to 5500 µg/mL (≈ 9.22 to 10.1 mM)
[2]; organic solvent or mixture, Ethyl acetate
  solubility: < 5000 µg/mL
[2]; Water
  solubility: < 5000 µg/mL
[3]
  XRPD after DVS test: No form change
  hygroscopicity (DVS): slightly hygroscopic
[3]; 0% RH
  Desorp. (DVS): 0.02%
  Sorp. (water uptake by DVS): 0.02%
[3]; 10% RH
  Desorp. (DVS): 0.04%
  Sorp. (water uptake by DVS): 0.03%
[3]; 20% RH
  Desorp. (DVS): 0.05%
  Sorp. (water uptake by DVS): 0.04%
[3]; 30% RH
  Desorp. (DVS): 0.06%
  Sorp. (water uptake by DVS): 0.05%
[3]; 40% RH
  Desorp. (DVS): 0.09%
  Sorp. (water uptake by DVS): 0.06%
[3]; 50% RH
  Sorp. (water uptake by DVS): 0.09%
[3]; 60% RH
  Sorp. (water uptake by DVS): 0.12%
[3]; 70% RH
  Sorp. (water uptake by DVS): 0.14%
[3]; 80% RH
  Sorp. (water uptake by DVS): 0.22%
[3]; 90% RH
  Sorp. (water uptake by DVS): 0.39%
[3]; DVS
  water uptake increased from 40% RH to 90% RH: about 0.33%
[3]; listed as Free form Crystalline Form A of Compound 1
  XRPD after DVS test: No form change
[3]; listed as free form Crystalline Form A of Compound 1
  XRPD after DVS test: no form change
[4]
  thermodynamic stability in competitive slurry: the most stable form
